Laboratory results from article PMC12749166, “Fragment-based drug design of a bacterial kinase inhibitor capable of increasing the antibiotic sensitivity of clinical isolates” (Communications Chemistry, 2025).
≈ marks a conversion by molar mass, not a printed value. Read-outs that look alike come from different tables or passages of the source.

What was measured:
[1] = tested on: P. aeruginosa clinical isolates; assay: MIC by broth micro-dilution; format: cell-based; details: Pseudomonas aeruginosa, read-out: MIC
[2] = tested on: S. aureus C0032; assay: MIC by broth micro-dilution; format: cell-based; details: Staphylococcus aureus; S. aureus C0032, aph(3')-IIIa ant(6); read-out: MIC
[3] = target: T1, APH(2”)-IVa (Enterococcus casseliflavus, UniProt O68183); assay: biochemical; format: binding; details: read-out: ΔTm (°C)
Description: Thermal shift assays were performed using an RTqPCR machine Mx3005P (Stratagene) in 96-well plates (Thermo-Fast low Profile, ThermoScientific) by mixing the protein at 5 µM, SYPRO® Orange (Sigma Aldrich) at […], and fragments at 500 µM. Fluorescence was followed with Cy3 and SYAL filters. Denaturation curves were collected using MxPro-Mx3005P v4.10 software and analyzed using the implemented version of wTSA-CRAFT[36].

[4] = target: T1, APH(2”)-IVa; details: 500 µM; times more inhibition than F136
[5] = target: T1, APH(2”)-IVa; assay: biochemical; details: Ki (µM), inhibition constant, ATP-competitive; 0-2 mM MgATP, 100 µM kanamycin A, global fitting

T1 sequence (O68183 1-301): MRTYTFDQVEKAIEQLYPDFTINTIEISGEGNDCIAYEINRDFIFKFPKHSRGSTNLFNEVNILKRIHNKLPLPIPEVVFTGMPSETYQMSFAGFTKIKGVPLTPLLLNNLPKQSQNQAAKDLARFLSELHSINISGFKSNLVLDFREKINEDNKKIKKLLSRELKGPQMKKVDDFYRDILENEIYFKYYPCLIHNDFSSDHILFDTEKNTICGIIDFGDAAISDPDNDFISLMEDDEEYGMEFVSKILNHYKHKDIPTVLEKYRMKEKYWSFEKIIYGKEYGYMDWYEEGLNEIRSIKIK

Compound | ΔTm at 500 µM [3] [°C] | Ki [5] [µM] | further results
NCC[C@H](O)C(=O)N[C@@H]1C[C@H](N)[C@@H](O[C@H]2O[C@H](CN)[C@@H](O)[C@H](O)[C@H]2O)[C@H](O)[C@H]1O[C@H]1O[C@H](CO)[C@@H](O)[C@H](N)[C@H]1O [Amikacin] | – | – | MIC ([1]; P. aeruginosa C0214, aph(3')-IIb): 8 to 32 µg/mL (≈ 13.7 to 54.6 µM); MIC ([1]; P. aeruginosa C0307, aph(3')-IIb): 4 to 8 µg/mL (≈ 6.83 to 13.7 µM); MIC [2]: 16 to 32 µg/mL (≈ 27.3 to 54.6 µM)
Nc1ccc(Br)cn1 [Compound 1] | 0.5 | – | –
Clc1cnc2[nH]ccc2c1 [Compound 2, 5-chloro-7-azaindole] | – | 9.63 | Inhibition relative to F136 [4]: 5.9 times
O=C(Nc1ccc(Cl)cc1)Nc1ccc(Cl)cn1 [Compound 6] | 0.17 | – | –
O=C(Nc1ccc(Br)cc1)Nc1ccc(Br)cn1 [Compound 7] | -0.26 | – | –
O=C(O)CNC(=O)Nc1ccc(Br)cn1 [Compound 8] | -0.25 | – | –
Clc1ccc(NCCc2ccccc2)nc1 [Compound 11] | 0.48 | – | –
Nc1ncc(Cl)cc1S(=O)(=O)N1CCCC(N)C1 (stereo not drawn) [Compound 16] | 1.7 | – | –
Nc1ncc(Cl)cc1S(=O)(=O)N1CCCNCC1 [Compound 17] | 1.05 | – | –
CC1CCCN(S(=O)(=O)c2cc(Cl)cnc2N)C1CN (stereo not drawn) [Compound 22] | 0.2 | – | –
Nc1ncc(Cl)cc1S(=O)(=O)NC1CCCNC1 (stereo not drawn) [Compound 23] | 0.33 | – | –
Nc1ncc(Cl)cc1S(=O)(=O)N1CCCCC1c1ncc[nH]1 (stereo not drawn) [Compound 24] | 1.99 | – | –
Nc1ncc(Cl)cc1S(=O)(=O)NCCCN1CCC(O)CC1 [Compound 25] | 0.6 | – | –
Cn1nccc1C1CCCN(c2cc(N)ncc2Cl)C1 (stereo not drawn) [Compound 27] | -1.45 | – | –
Nc1cc(N2CCC(C(=O)N3CCCCC3)CC2)c(Cl)cn1 [Compound 28] | -1.78 | – | –
Nc1cc(N2CCOC(c3ccccc3)C2)c(Cl)cn1 (stereo not drawn) [Compound 30] | -1.22 | – | –
O=C(NCCc1ccccc1)c1cc(NC2CC2)ncc1Cl [Compound 36-1] | – | 66.1 | –
O=C(NCCc1ccc(O)cc1)c1cc(NC2CC2)ncc1Cl [Compound 36-2] | – | 11.9 | –
NC(=O)CNC(=O)c1cc(NC2CC2)ncc1Cl [Compound 36-3] | – | 32.3 | –
O=C(NCc1ccccc1)c1cc(NC2CC2)ncc1Cl [Compound 36-4] | – | 79.1 | –
O=C(NCCO)c1cc(NC2CC2)ncc1Cl [Compound 36-5] | – | 25.6 | –
NNC(=O)c1cc(NC2CC2)ncc1Cl [Compound 36-6] | – | 11.4 | –
CN(C)CCNC(=O)c1cc(NC2CC2)ncc1Cl [Compound 36-7] | – | 18.6 | –
NCCNC(=O)c1cc(NC2CC2)ncc1Cl [Compound 36-8] | – | 16.3 | –
